Measurements reported in publication PMC10038056, “Synthesis, biological evaluation and theoretical studies of (E)-1-(4-sulfamoyl-phenylethyl)-3-arylidene-5-aryl-1H-pyrrol-2(3H)-ones as human carbonic anhydrase inhibitors” (Journal of Enzyme Inhibition and Medicinal Chemistry, 2023).

What was measured:
[1] = molecular target: hCA IX (Homo sapiens, UniProt Q16790); assay: Stopped-flow CO2 hydrase assay, hCA IX
Protocol: (§1) (AAZ), a commonly used sulphonamide inhibitor was used for comparing the inhibition data. The Inhibition effects of these compounds on enzyme activities were evaluated under in-vitro conditions. The CA catalysed CO2 hydration activity was measured using an Applied Photophysics stopped-flow instrument. […] In the same way, the uncatalyzed rates were analysed and deducted from the total measured rates. […] The inhibitor and enzyme solutions were preincubated at room temperature for 15 min prior to the experiment to promote the formation of the E-I complex. By employing nonlinear least-squares methods using PRISM 3 and the Cheng-Prusoff equation, the inhibition constants were determined, as was previously reported[18–20]^,[21] and indicate the average of at least three separate measurements that fall between the range of 5 and 10%.

[2] = molecular target: hCA II (Homo sapiens, UniProt P00918); assay: Stopped-flow CO2 hydrase assay, hCA II
Protocol: as §1

[3] = molecular target: hCA I (Homo sapiens, UniProt P00915); assay: Stopped-flow CO2 hydrase assay, hCA I
hCA I, sequence (P00915 whole entry): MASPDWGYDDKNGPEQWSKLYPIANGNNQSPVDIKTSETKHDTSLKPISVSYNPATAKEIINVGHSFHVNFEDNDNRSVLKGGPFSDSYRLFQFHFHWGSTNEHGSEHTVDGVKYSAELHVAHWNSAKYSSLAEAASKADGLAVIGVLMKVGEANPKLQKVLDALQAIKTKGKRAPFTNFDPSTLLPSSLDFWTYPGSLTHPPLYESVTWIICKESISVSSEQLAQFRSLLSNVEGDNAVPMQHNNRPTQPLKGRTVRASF
Protocol: as §1

[4] = molecular target: hCA XII (Homo sapiens, UniProt O43570); assay: Stopped-flow CO2 hydrase assay, hCA XII
hCA XII, sequence (O43570 25-354): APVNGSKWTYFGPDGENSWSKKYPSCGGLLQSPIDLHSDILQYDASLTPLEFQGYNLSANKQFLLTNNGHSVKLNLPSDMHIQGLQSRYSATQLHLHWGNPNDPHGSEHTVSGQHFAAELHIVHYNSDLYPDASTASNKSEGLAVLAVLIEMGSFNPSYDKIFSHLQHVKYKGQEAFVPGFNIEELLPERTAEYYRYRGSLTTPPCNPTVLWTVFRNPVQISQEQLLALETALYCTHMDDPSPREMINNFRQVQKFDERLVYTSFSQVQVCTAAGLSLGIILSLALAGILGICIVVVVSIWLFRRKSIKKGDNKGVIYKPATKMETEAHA
Protocol: as §1

[5] = stopped flow, mean from 3 assays, errors 5–10%

| Ki [1] [µM] | melting point [°C] | Ki [2] [µM] | Ki [3, 5] [µM] | Ki [4, 5] [µM] | Ki ([3]; in µM) [µM] | Ki ([4]; in µM) [µM] | Structure (SMILES) |
| --- | --- | --- | --- | --- | --- | --- | --- |
| 0.0727 | 170 to 171 | 0.0814 | 0.369 | 0.0456 |  |  | NS(=O)(=O)c1ccc(CCN2C(=O)/C(=C/c3ccc(F)cc3)C=C2c2ccccc2)cc1 [Compound 3b, (E)-4-(2-(3-(4-fluorobenzylidene)-2-oxo-5-phenyl-2,3-dihydro-1H-pyrrol-1-yl)ethyl)benzenesulphonamide] |
| 0.103 | 196 to 197 | 0.147 | 2.53 | 0.0427 |  |  | Cc1ccc(C2=C/C(=C\c3ccc(F)cc3)C(=O)N2CCc2ccc(S(N)(=O)=O)cc2)cc1 [Compound 3f, (E)-4-(2-(3-(4-fluorobenzylidene)-2-oxo-5-(p-tolyl)-2,3-dihydro-1H-pyrrol-1-yl)ethyl)benzenesulphonamide] |
| 0.0955 | 224 to 225 | 0.942 | 4.39 | 0.0734 |  |  | Cc1ccc(C2=C/C(=C\c3ccc(Cl)cc3)C(=O)N2CCc2ccc(S(N)(=O)=O)cc2)cc1 [Compound 3g, (E)-4-(2-(3-(4-chlorobenzylidene)-2-oxo-5-(p-tolyl)-2,3-dihydro-1H-pyrrol-1-yl)ethyl)benzenesulphonamide] |
| 0.0842 | 233 to 234 | 1.87 | 4.19 | 0.094 |  |  | Cc1ccc(C2=C/C(=C\c3ccc(Br)cc3)C(=O)N2CCc2ccc(S(N)(=O)=O)cc2)cc1 [Compound 3h, (E)-4-(2-(3-(4-bromobenzylidene)-2-oxo-5-(p-tolyl)-2,3-dihydro-1H-pyrrol-1-yl)ethyl)benzenesulphonamide] |
| 0.0714 | 185 to 186 | 0.296 | 0.836 | 0.0662 |  |  | CCc1ccc(C2=C/C(=C\c3ccc(F)cc3)C(=O)N2CCc2ccc(S(N)(=O)=O)cc2)cc1 [Compound 3j, (E)-4-(2-(5-(4-ethylphenyl)-3-(4-fluorobenzylidene)-2-oxo-2,3-dihydro-1H-pyrrol-1-yl)ethyl)benzenesulphonamide] |
| 0.0413 | 159 to 160 | 0.466 | 1.42 | 0.0391 |  |  | NS(=O)(=O)c1ccc(CCN2C(=O)/C(=C/c3ccc(F)cc3)C=C2c2ccc(Cl)cc2)cc1 [Compound 3n, (E)-4-(2-(5-(4-chlorophenyl)-3-(4-fluorobenzylidene)-2-oxo-2,3-dihydro-1H-pyrrol-1-yl)ethyl)benzenesulphonamide] |
| 0.468 | 183 to 184 | 1.65 | 8.5 | 0.396 | 8.5 |  | CC(C)(C)c1ccc(C2=C/C(=C\c3ccccc3)C(=O)N2CCc2ccc(S(N)(=O)=O)cc2)cc1 [Compound 3q, (E)-4-(2-(3-benzylidene-5-(4-(tert-butyl)phenyl)-2-oxo-2,3-dihydro-1H-pyrrol-1-yl)ethyl)benzenesulphonamide] |
| 0.418 | 187 to 188 | 1.26 | 6 | 0.356 |  |  | CC(C)(C)c1ccc(C2=C/C(=C\c3ccc(F)cc3)C(=O)N2CCc2ccc(S(N)(=O)=O)cc2)cc1 [Compound 3r, (E)-4-(2-(5-(4-(tert-butyl)phenyl)-3-(4-fluorobenzylidene)-2-oxo-2,3-dihydro-1H-pyrrol-1-yl)ethyl)benzenesulphonamide] |
| 0.432 | 196 to 197 | 4.36 | 7.93 | 0.342 |  | 0.34 | CC(C)(C)c1ccc(C2=C/C(=C\c3ccc(Cl)cc3)C(=O)N2CCc2ccc(S(N)(=O)=O)cc2)cc1 [Compound 3s, (E)-4-(2-(5-(4-(tert-butyl)phenyl)-3-(4-chlorobenzylidene)-2-oxo-2,3-dihydro-1H-pyrrol-1-yl)ethyl)benzenesulphonamide] |
| 0.391 | 204 to 205 | 4.69 | 9.27 | 0.308 | 9.3 |  | CC(C)(C)c1ccc(C2=C/C(=C\c3ccc(Br)cc3)C(=O)N2CCc2ccc(S(N)(=O)=O)cc2)cc1 [Compound 3t, (E)-4-(2-(3-(4-bromobenzylidene)-5-(4-(tert-butyl)phenyl)-2-oxo-2,3-dihydro-1H-pyrrol-1-yl)ethyl)benzenesulphonamide] |

Continued, compound first:

| Structure (SMILES) | Ki [1] [µM] | melting point [°C] | Ki [2] [µM] | Ki [3, 5] [µM] | Ki [4, 5] [µM] | Ki ([3]; in µM) [µM] | Ki ([4]; in µM) [µM] |
| --- | --- | --- | --- | --- | --- | --- | --- |
| NS(=O)(=O)c1ccc(CCN2C(=O)/C(=C/c3ccccc3)C=C2c2ccccc2)cc1 [Compound 3a, (E)-4-(2-(3-benzylidene-2-oxo-5-phenyl-2,3-dihydro-1H-pyrrol-1-yl)ethyl) benzenesulphonamide] | 0.0938 | 167 to 168 | 0.368 | 0.634 | 0.0621 |  |  |
| NS(=O)(=O)c1ccc(CCN2C(=O)/C(=C/c3ccc(Cl)cc3)C=C2c2ccccc2)cc1 [Compound 3c, (E)-4-(2-(3-(4-chlorobenzylidene)-2-oxo-5-phenyl-2,3-dihydro-1H-pyrrol-1-yl)ethyl)benzenesulphonamide] | 0.108 | 192 to 193 | 0.718 | 3.25 | 0.0765 |  |  |
| NS(=O)(=O)c1ccc(CCN2C(=O)/C(=C/c3ccc(Br)cc3)C=C2c2ccccc2)cc1 [Compound 3d, (E)-4-(2-(3-(4-bromobenzylidene)-2-oxo-5-phenyl-2,3-dihydro-1H-pyrrol-1-yl)ethyl)benzenesulphonamide] | 0.112 | 214 to 215 | 1.43 | 4.25 | 0.0898 |  |  |
| Cc1ccc(C2=C/C(=C\c3ccccc3)C(=O)N2CCc2ccc(S(N)(=O)=O)cc2)cc1 [Compound 3e, (E)-4-(2-(3-benzylidene-2-oxo-5-(p-tolyl)-2,3-dihydro-1H-pyrrol-1-yl)ethyl)benzenesulphonamide] | 0.117 | 189 to 190 | 0.471 | 3.2 | 0.0584 |  |  |
| CCc1ccc(C2=C/C(=C\c3ccccc3)C(=O)N2CCc2ccc(S(N)(=O)=O)cc2)cc1 [Compound 3i, (E)-4-(2-(3-benzylidene-5-(4-ethylphenyl)-2-oxo-2,3-dihydro-1H-pyrrol-1-yl)ethyl)benzenesulphonamide] | 0.0783 | 183 to 184 | 0.901 | 1.79 | 0.0839 |  |  |
| CCc1ccc(C2=C/C(=C\c3ccc(Cl)cc3)C(=O)N2CCc2ccc(S(N)(=O)=O)cc2)cc1 [Compound 3k, (E)-4-(2-(3-(4-chlorobenzylidene)-5-(4-ethylphenyl)-2-oxo-2,3-dihydro-1H-pyrrol-1-yl)ethyl)benzenesulphonamide] | 0.102 | 186 to 187 | 1.62 | 5.93 | 0.0911 |  |  |
| CCc1ccc(C2=C/C(=C\c3ccc(Br)cc3)C(=O)N2CCc2ccc(S(N)(=O)=O)cc2)cc1 [Compound 3l, (E)-4-(2-(3-(4-bromobenzylidene)-5-(4-ethylphenyl)-2-oxo-2,3-dihydro-1H-pyrrol-1-yl)ethyl)benzenesulphonamide] | 0.0775 | 188 to 189 | 3.71 | 6.76 | 0.0563 |  |  |
| NS(=O)(=O)c1ccc(CCN2C(=O)/C(=C/c3ccccc3)C=C2c2ccc(Cl)cc2)cc1 [Compound 3m, (E)-4-(2-(3-benzylidene-5-(4-chlorophenyl)-2-oxo-2,3-dihydro-1H-pyrrol-1-yl)ethyl)benzenesulphonamide] | 0.0546 | 189 to 190 | 0.78 | 2.26 | 0.0617 |  |  |
| NS(=O)(=O)c1ccc(CCN2C(=O)/C(=C/c3ccc(Cl)cc3)C=C2c2ccc(Cl)cc2)cc1 [Compound 3o, (E)-4-(2-(3-(4-chlorobenzylidene)-5-(4-chlorophenyl)-2-oxo-2,3-dihydro-1H-pyrrol-1-yl)ethyl)benzenesulphonamide] | 0.0689 | 163 to 164 | 1.89 | 5.09 | 0.0789 |  |  |
| NS(=O)(=O)c1ccc(CCN2C(=O)/C(=C/c3ccc(Br)cc3)C=C2c2ccc(Cl)cc2)cc1 [Compound 3p, (E)-4-(2-(3-(4-bromobenzylidene)-5-(4-chlorophenyl)-2-oxo-2,3-dihydro-1H-pyrrol-1-yl)ethyl)benzenesulphonamide] | 0.0743 | 176 to 177 | 3.85 | 5.87 | 0.0854 |  |  |
